According to PubChem BioAssay (NCI):
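Assay format: 96-well plates, 48-hour exposure. TGI marks complete inhibition of growth.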

Key:
Assay in all cases: NCI anticancer screen, dose series, 48 h
SK-MEL-28 melanoma = system: SK-MEL-28 melanoma
OVCAR-3 ovarian = system: OVCAR-3 ovarian
IGROV1 ovarian = system: IGROV1 ovarian
COLO 205 colon = system: COLO 205 colon
NCI/ADR-RES ovarian = system: NCI/ADR-RES ovarian
TK-10 renal = system: TK-10 renal
HCT-15 colon = system: HCT-15 colon
MDA-N = system: MDA-N
UACC-62 melanoma = system: UACC-62 melanoma
MCF7 breast = system: MCF7 breast
SW-620 colon = system: SW-620 colon
MALME-3M melanoma = system: MALME-3M melanoma
NCI-H460 lung = system: NCI-H460 lung
RXF 393 renal = system: RXF 393 renal
UACC-257 melanoma = system: UACC-257 melanoma
EKVX NSCLC = system: EKVX NSCLC
ACHN renal = system: ACHN renal
UO-31 renal = system: UO-31 renal
NCI-H522 lung = system: NCI-H522 lung
MDA-MB-231 breast = system: MDA-MB-231 breast

Structure (SMILES): CC1(C)CCC[C@@]2(C)C1C(=O)[C@@H]1O[C@]1(C)[C@@H]2CO (stereo not given in full)
- TGI (SK-MEL-28 melanoma): 80.9 µM
- TGI (OVCAR-3 ovarian): 50.8 µM
- TGI (IGROV1 ovarian): > 100 µM
- TGI (COLO 205 colon): 85.1 µM
- TGI (NCI/ADR-RES ovarian): > 100 µM
- TGI (TK-10 renal): > 100 µM
- TGI (HCT-15 colon): > 100 µM
- TGI (MDA-N): > 100 µM
- TGI (UACC-62 melanoma): > 100 µM
- TGI (MCF7 breast): > 100 µM
- TGI (SW-620 colon): > 100 µM
- TGI (MALME-3M melanoma): > 100 µM
- TGI (NCI-H460 lung): > 100 µM
- TGI (RXF 393 renal): 75.6 µM
- TGI (UACC-257 melanoma): > 100 µM
- TGI (EKVX NSCLC): > 100 µM
- TGI (ACHN renal): > 100 µM
- TGI (UO-31 renal): > 100 µM
- TGI (NCI-H522 lung): 93.1 µM
- TGI (MDA-MB-231 breast): > 100 µM

Structure (SMILES): CCOC(=O)/C(C[C@H]1OC(C)(C)O[C@@H]1[C@H]1COC(C)(C)O1)=N/O
- TGI (SK-MEL-28 melanoma): > 100 µM
- TGI (OVCAR-3 ovarian): > 100 µM
- TGI (IGROV1 ovarian): > 100 µM
- TGI (COLO 205 colon): > 100 µM
- TGI (NCI/ADR-RES ovarian): > 100 µM
- TGI (TK-10 renal): > 100 µM
- TGI (HCT-15 colon): > 100 µM
- TGI (MDA-N): > 100 µM
- TGI (UACC-62 melanoma): > 100 µM
- TGI (MCF7 breast): > 100 µM
- TGI (SW-620 colon): > 100 µM
- TGI (MALME-3M melanoma): > 100 µM
- TGI (NCI-H460 lung): > 100 µM
- TGI (RXF 393 renal): > 100 µM
- TGI (UACC-257 melanoma): > 100 µM
- TGI (EKVX NSCLC): > 100 µM
- TGI (ACHN renal): > 100 µM
- TGI (UO-31 renal): > 100 µM
- TGI (NCI-H522 lung): > 100 µM
- TGI (MDA-MB-231 breast): > 100 µM

Structure (SMILES): O=S(=O)(NC1OCCCC1I)c1ccccc1 (stereo not given)
- TGI (SK-MEL-28 melanoma): > 100 µM
- TGI (OVCAR-3 ovarian): > 100 µM
- TGI (IGROV1 ovarian): > 100 µM
- TGI (COLO 205 colon): > 100 µM
- TGI (NCI/ADR-RES ovarian): > 100 µM
- TGI (TK-10 renal): > 100 µM
- TGI (HCT-15 colon): > 100 µM
- TGI (MDA-N): > 100 µM
- TGI (UACC-62 melanoma): > 100 µM
- TGI (MCF7 breast): > 100 µM
- TGI (SW-620 colon): > 100 µM
- TGI (MALME-3M melanoma): > 100 µM
- TGI (NCI-H460 lung): > 100 µM
- TGI (RXF 393 renal): > 100 µM
- TGI (UACC-257 melanoma): > 100 µM
- TGI (EKVX NSCLC): > 100 µM
- TGI (ACHN renal): > 100 µM
- TGI (UO-31 renal): > 100 µM
- TGI (NCI-H522 lung): > 100 µM
- TGI (MDA-MB-231 breast): > 100 µM

Structure (SMILES): C[N+](C)(C)CC(=O)N/N=C(/CC1OC(=O)c2ccccc21)c1ccccc1O (stereo not given)
- TGI (SK-MEL-28 melanoma): > 100 µM
- TGI (OVCAR-3 ovarian): > 100 µM
- TGI (IGROV1 ovarian): > 100 µM
- TGI (COLO 205 colon): > 100 µM
- TGI (NCI/ADR-RES ovarian): 55.4 µM
- TGI (TK-10 renal): > 100 µM
- TGI (HCT-15 colon): > 100 µM
- TGI (MDA-N): > 100 µM
- TGI (UACC-62 melanoma): 72.1 µM
- TGI (MCF7 breast): > 100 µM
- TGI (SW-620 colon): > 100 µM
- TGI (MALME-3M melanoma): > 100 µM
- TGI (NCI-H460 lung): 70.9 µM
- TGI (RXF 393 renal): 86.4 µM
- TGI (UACC-257 melanoma): 78.9 µM
- TGI (EKVX NSCLC): > 100 µM
- TGI (ACHN renal): 66.4 µM
- TGI (UO-31 renal): 56.1 µM
- TGI (NCI-H522 lung): > 100 µM
- TGI (MDA-MB-231 breast): > 100 µM

Structure (SMILES): C#C[C@]1(O)CC[C@H]2[C@@H]3CCC4=C/C(=N\OCCN(CC)CC)CC[C@]4(C)[C@H]3CC[C@@]21C
- TGI (SK-MEL-28 melanoma): 25.8 µM
- TGI (OVCAR-3 ovarian): 8.91 µM
- TGI (IGROV1 ovarian): 17.1 µM
- TGI (COLO 205 colon): 11.5 µM
- TGI (NCI/ADR-RES ovarian): 8.5 µM
- TGI (TK-10 renal): 23.5 µM
- TGI (HCT-15 colon): 25.3 µM
- TGI (MDA-N): 6.24 µM
- TGI (UACC-62 melanoma): 11.3 µM
- TGI (MCF7 breast): 21.3 µM
- TGI (SW-620 colon): > 29.1 µM
- TGI (MALME-3M melanoma): 10.2 µM
- TGI (NCI-H460 lung): 21 µM
- TGI (RXF 393 renal): 7.35 µM
- TGI (UACC-257 melanoma): 16.9 µM
- TGI (EKVX NSCLC): 26.6 µM
- TGI (ACHN renal): 28.1 µM
- TGI (UO-31 renal): 15.8 µM
- TGI (NCI-H522 lung): 5.76 µM
- TGI (MDA-MB-231 breast): 35.2 µM

Structure (SMILES): COc1cc2c(c(OC)c1OC)C(=O)[C@H](Br)[C@H]2NC(=O)NCCCl
- TGI (SK-MEL-28 melanoma): > 100 µM
- TGI (OVCAR-3 ovarian): > 100 µM
- TGI (IGROV1 ovarian): > 100 µM
- TGI (COLO 205 colon): > 100 µM
- TGI (NCI/ADR-RES ovarian): > 100 µM
- TGI (TK-10 renal): > 100 µM
- TGI (HCT-15 colon): > 100 µM
- TGI (MDA-N): > 100 µM
- TGI (UACC-62 melanoma): > 100 µM
- TGI (MCF7 breast): > 100 µM
- TGI (SW-620 colon): > 100 µM
- TGI (MALME-3M melanoma): > 100 µM
- TGI (NCI-H460 lung): > 100 µM
- TGI (RXF 393 renal): > 100 µM
- TGI (UACC-257 melanoma): > 100 µM
- TGI (EKVX NSCLC): > 100 µM
- TGI (ACHN renal): > 100 µM
- TGI (UO-31 renal): > 100 µM
- TGI (NCI-H522 lung): > 100 µM
- TGI (MDA-MB-231 breast): > 100 µM

Structure (SMILES): CCCC(=O)OCC1OC(n2cc(F)c(=O)[nH]c2=O)C(F)C1OC(=O)CCC (stereo not given)
- TGI (SK-MEL-28 melanoma): > 100 µM
- TGI (OVCAR-3 ovarian): > 100 µM
- TGI (IGROV1 ovarian): > 100 µM
- TGI (COLO 205 colon): > 100 µM
- TGI (NCI/ADR-RES ovarian): > 100 µM
- TGI (TK-10 renal): > 100 µM
- TGI (HCT-15 colon): > 100 µM
- TGI (MDA-N): > 100 µM
- TGI (UACC-62 melanoma): > 100 µM
- TGI (MCF7 breast): > 100 µM
- TGI (SW-620 colon): > 100 µM
- TGI (MALME-3M melanoma): > 100 µM
- TGI (NCI-H460 lung): > 100 µM
- TGI (RXF 393 renal): > 100 µM
- TGI (UACC-257 melanoma): > 100 µM
- TGI (EKVX NSCLC): > 100 µM
- TGI (ACHN renal): > 100 µM
- TGI (UO-31 renal): > 100 µM
- TGI (NCI-H522 lung): > 100 µM
- TGI (MDA-MB-231 breast): > 100 µM

Structure (SMILES): COC(=O)c1ccccc1C1CN=NC12Cc1cc(C)c(C)cc1C2=O (stereo not given)
- TGI (SK-MEL-28 melanoma): > 100 µM
- TGI (OVCAR-3 ovarian): > 100 µM
- TGI (IGROV1 ovarian): > 100 µM
- TGI (COLO 205 colon): > 100 µM
- TGI (NCI/ADR-RES ovarian): > 100 µM
- TGI (TK-10 renal): > 100 µM
- TGI (HCT-15 colon): > 100 µM
- TGI (MDA-N): > 100 µM
- TGI (UACC-62 melanoma): > 100 µM
- TGI (MCF7 breast): 65 µM
- TGI (SW-620 colon): > 100 µM
- TGI (MALME-3M melanoma): > 100 µM
- TGI (NCI-H460 lung): > 100 µM
- TGI (RXF 393 renal): > 100 µM
- TGI (UACC-257 melanoma): 44.9 µM
- TGI (EKVX NSCLC): > 100 µM
- TGI (ACHN renal): > 100 µM
- TGI (UO-31 renal): > 100 µM
- TGI (NCI-H522 lung): 67.3 µM
- TGI (MDA-MB-231 breast): > 100 µM
